Experimental data: US8318446B2, “DNA-damage-induced proteolysis” (California Institute of Technology, priority 2008, dated 2012)
Read-outs that look alike come from different tables or passages of the source.

What was measured:
IKKα [1] = assay: IKKα protein level in MESC2.10 neurons, western blot; type: cell-based, human
Source text: Lysates were first treated with a combination of anti-IKKβ and IKKγ antibodies coupled to agarose beads to deplete IKKγ/IKKβ/IKKα complex. […] Fold changes of IKK activity were quantified by measuring the band intensity using Image J, and compared to non-treated neurons.
FIG. 3C is a western blot showing IKKα levels in the control and IKKα-expressing neurons. MESC2.10 neuroblasts were transduced with an IKKα recombinant lentivirus and differentiated as described below. EGFP lentivirus was used as a control.
IKKα was cloned into the lentiviral FUGW vector under the control of a ubiquitin promoter. An EGFP-lentivirus was used as a control. The Bcl-xL cDNA was cloned from MESC2.10 neurons by RT-PCR using standard procedures and its identity confirmed by sequencing. The cDNA was subsequently inserted into FUGW lentiviral vector. The shRNAs for IKKβ were cloned in a lentiviral backbone. Lentiviruses were produced by transfection of 293 cells using calcium phosphate precipitation. Supernatants of virus-producing cells were harvested 48 hr post-transfection and concentrated on Amicon Ultra columns. An EGFP virus was used as a control to monitor viral titer. A multiplicity of infection of 4:1 was used to infect MESC2.10 neuroblasts. Expression of IKKα, Bcl-xL and reduction of IKKβ were determined by Western blotting.

Bcl-xL [2] = assay: Bcl-xL level in extracts of MESC2.10 neurons, Western blotting; type: cell-based, human
Source text: FIG. 6A is a western blot showing the expression of Bcl-XL. Extracts of control and etoposide-treated MESC2.10 neurons were examined for Bcl-xL by Western blotting. […] Fold changes were normalized to the intensity of loading control, and compared to that of untreated control neurons (lane 5).

endogenous Htt = assay: Etoposide-induced Htt proteolysis in MESC2.10 neurons, Western blotting with anti-Htt mAb 2166; type: cell-based, human; details: for effect on etoposide-induced Htt proteolysis: pre-incubation 1 hr prior to 10 μM etoposide, sodium salicylate 5 mg/ml, caspase inhibitors 20 μM
Source text: Extracts were examined for Htt by Western blotting. […] Fold changes for full-length Htt levels were obtained by measuring the band intensity in each lane, normalized to tubulin and compared to non-treated control.
EGFP-lentivirus was used a control (C). […] Second and third panels show staining for Bcl-xL and pro-caspase-3, respectively. IKKγ levels were used as a loading control.
(§1) Neurons were harvested and separated into cytoplasmic and nuclear fractions using the NE-PER kit (PIERCE) according to instructions. For most experiments, ˜120 μg of lysate were used for SDS-PAGE and Western blotting with the indicated antibodies. Reactive bands in Western blots were detected by enhanced chemiluminescence (ECL) using a gel documentation system.

[3] = test system: full-length, mutant Htt protein; assay: Etoposide-induced proteolysis of mutant Htt in striatal Hdh^Q111/Q111 neurons; type: cell-based, mouse; details: 10 μM etoposide for 6 hours
Source text: Processing of samples was as described in FIG. 3A. […] IKKγ was used as loading control.

p53 = assay: Nuclear p53 in MESC2.10 neurons, western blotting; type: cell-based, human; details: etoposide
Source text: Nuclear extracts from MESC2.10 neurons were examined for the presence p53 by western blotting. Lanes 1-4 are nuclear extracts from MESC2.10 neurons with EGFP and lanes 5-8 are from neurons that were transduced with IKKα lentiviruses (FIG. 3C). Staining with anti-lamin B1 was used to ensure equal loading (bottom panel).

p65 NF-κB = p65 NF-κB binding to consensus DNA oligonucleotides, nuclear extracts of MESC2.10 neurons; type: cell-based, human; details: etoposide
Protocol: Lanes 1-4 show p65 binding from nuclear extracts of control and lanes 5-8 show p65 binding from neurons transduced with a lentivirus expressing IKKα (FIG. 3C).
Wells with mutated NF-κB DNA oligonucleotides were used to ensure specificity of the binding (column 4).
Nuclear extracts for control or etoposide-treated MESC2.10 neurons were obtained using the cell fractionation kit from pierce according to the instructions provided. Fifty μg of each nuclear extract was incubated for an hour at room temperature on 96 well plates coated with consensus NF-κB oligonucleotides (p65 or p52). Mutated NF-κB oligonucleotides were used to confirm binding specificity. For competition assays, nuclear extracts were pre-incubated with NF-κB oligonucleotides for 1 hour on ice and then added to the coated wells. After washing, each well was incubated with anti-p65 or anti-p52 antibodies for 30 min at 37° C. Wells were washed, followed by incubation with a secondary antibody conjugated to HRP. TMB (3,3′,5,5′-tetramethylbenzidine) was added for 10 min. Binding was measured in a microplate reader at 655 nm.

IKKα [4] = assay: IKKα kinase assay on IKKα complexes devoid of IKKβ from MESC2.10 neurons; type: cell-based, human; details: longer treatment with 10 μM etoposide
Protocol: (§2) To determine IKKα activity, lyastes were first depleted of IKKβ complexes using 4 μg of anti-IKKγ and anti-IKKβ antibodies coupled to protein G. The depleted lysates were used to isolate IKKα complexes with 2 μg of anti-IKKα antibody. GST-IκBα was used as a substrate to measure kinase activity. To examine whether IKKs phosphorylate Bcl-xL, 0.5 μg of either IKKα or IKKβ were incubated with 1 μg of full-length Bcl-xL in the presence of 32P-γ-ATP for 30 min at 30° C. GST protein was used as a negative control. All kinase products were examined by SDS-PAGE and autoradiography.
To determine whether DNA damage influences IKKα activity, IKKα complexes devoid of IKKβ was obtained. Neuronal extracts were depleted by prior incubation with anti-IKKγ and anti-IKKβ antibodies, and IKKα complexes were subsequently immunoprecipitated.

caspase-3 [5] = type: cell-based, human; details: etoposide 6 hrs; DEVD-p-nitroanaline substrate; sodium salicylate 5 mg/ml 1 hour prior
caspase-3 [6] = target: T1, caspase-3 (Homo sapiens, UniProt P42574); type: cell-based; details: MESC2.10 neurons, 6 hrs of etoposide treatment, western blot
T1 construct: Fifty μg of each lysate was incubated with either caspase-3 substrate (DEVD conjugated to p-nitroanaline); endogenous in cells; host or cells: differentiated MESC2.10 human neurons (lysates)
T1 sequence (P42574 1-277): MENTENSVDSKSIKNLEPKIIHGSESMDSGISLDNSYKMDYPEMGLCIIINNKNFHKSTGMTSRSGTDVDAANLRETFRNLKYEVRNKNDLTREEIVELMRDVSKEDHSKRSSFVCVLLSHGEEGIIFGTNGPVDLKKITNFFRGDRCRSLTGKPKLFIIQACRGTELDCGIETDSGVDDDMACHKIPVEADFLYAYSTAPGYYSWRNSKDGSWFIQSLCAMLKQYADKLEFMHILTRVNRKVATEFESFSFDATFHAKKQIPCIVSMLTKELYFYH

caspase-6 [7] = type: cell-based, human; details: etoposide 6 hrs; VEID-p-nitroanaline substrate; sodium salicylate 5 mg/ml 1 hour prior
caspase-6 [8] = target: T2, caspase-6 (Homo sapiens, UniProt P55212); type: cell-based; details: MESC2.10 neurons, 6 hrs of etoposide treatment, western blot
T2 construct: endogenous in cells; host or cells: differentiated MESC2.10 human neurons (lysates)
T2 sequence (P55212 1-293): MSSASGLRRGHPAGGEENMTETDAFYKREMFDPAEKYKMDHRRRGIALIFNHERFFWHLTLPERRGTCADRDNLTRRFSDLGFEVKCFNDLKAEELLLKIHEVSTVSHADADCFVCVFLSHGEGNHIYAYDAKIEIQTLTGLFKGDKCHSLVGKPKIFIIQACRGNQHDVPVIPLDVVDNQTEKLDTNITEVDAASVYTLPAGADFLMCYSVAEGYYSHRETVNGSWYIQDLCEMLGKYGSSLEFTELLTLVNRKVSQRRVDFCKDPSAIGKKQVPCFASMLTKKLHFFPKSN

MESC2.10 neurons = assay: BrdU incorporation (cell cycle activation) in MESC2.10 neurons; type: cell-based, human; details: Day 6 differentiated neurons, 10 μM etoposide 4 hours, BrdU 1 mM
Protocol: BrdU incorporation was detected described in M&M. Image was captured with a confocal microscope.
BrdU (1 mM) was added and incubated for additional 2 hours. Cells were fixed in 5% paraformaldehyde followed by permeabilization in 70% methanol in PBS at −20° C. overnight. To denature chromatin, coverslips were immersed in 2 N HCl for 30 minutes at 37° C. and neutralized in 0.1 M borate buffer (pH 8.5) by washing 2 times for 5 minutes. To detect BrdU incorporation, coverslips were incubated with Rat-anti-BrdU (1:200). Anti-Tuj-1 (1:1000) was used to stain neurons. Goat anti rat conjugated to rhodamine and goat anti-mouse conjugated to FITC (1:500) were used as secondary. Pictures were captured with a confocal microscope.

recombinant IKKβ = recombinant IKKβ (Homo sapiens, UniProt O14920); details: full-length Bcl-xL, 32P-γ-ATP, 30 min at 30° C.
Protocol: Active recombinant IKKα or IKKβ were tested for the ability to phosphorylate Bcl-xL. The kinase assay was performed using recombinant Bcl-xL as a substrate. Products were visualized by autoradiography. IκBα was used as a positive control substrate for IKKα.
as §2
The possibility that activated IKKβ phosphorylates Bcl-xL was tested. To avoid contamination with other neuronal kinases that may co-immunoprecipitate with IKKβ, recombinant IKKs were used for in vitro kinase assays with Bcl-xL as the substrate.

Bcl-xL [9] = details: Hdh^Q111/Q111 neurons; NaSal 5 mg/ml 1 hour prior to 10 μM etoposide
Protocol: as §1

Htt = assay: γ-irradiation-induced Htt cleavage in MESC2.10 neurons; type: cell-based, human; details: 5 Gy, 6 hours; sodium salicylate 5 mg/ml 1 hour prior to irradiation
Protocol: Cells were irradiated with 5 Gy and further incubated for the indicated time. Sodium salicylate (NaSal, lane 5) was added at a concentration of 5 mg/ml 1 hour prior to irradiation and incubated for 6 hours. […] Lanes 7 and 8 represent MESC2.10 neurons transduced with an IKKβ shRNA lentivirus (FIG. 4A) and irradiated with 5 Gy and incubated for 6 hours. […] Tubulin was used as a loading control
To confirm that Htt cleavage is induced by DNA damage and not other, secondary effects of etopoisde, we examined whether DNA damage induced by γ-irradiation of neurons could have a similar effect on Htt cleavage. […] The difference may be due to rapid induction of double stranded DNA breaks by irradiation.

IKKα [10] = assay: Activation of IKKα in MESC2.10 neurons expressing Flag-tagged IKKα, immune kinase assay; type: cell-based, human; details: neurons starved for growth factors 8 hours; IGF-1 20 ng/ml, netrin 100 ng/ml
Protocol: IGF-1 was added at 20 ng/ml for the indicated time.
Netrin was added at 100 ng/ml for the indicated time.
The ability of a molecule to increase IKKα activation can be measured using assays that are well known in the art. For example and without limitation, IKKα activators can be identified using immune kinase assays and gene reporter assay. In an example of immune kinase assays, MESC2.10 neurons engineered to express a Flag-tagged IKKα are starved for growth factors for 8 hours. Candidate IKKα activators are added, respectively, to the starved MESC2.10 neurons for desired period of time. Neurons are harvested and cytoplasmic extracts are used to immunoprecipitate IKKα using agarose beads coupled to anti-Flag antibody. Complexes are assayed for the ability to phosphorylate a recombinant substrate GST-IκBα in the presence of radioactive […]. Products are examined by SDS-PAGE followed by autoradiography.
MESC2.10 neurons engineered to express a Flag-tagged IKKα were starved for growth factors for 8 hours. 20 ng/ml insulin-like growth factor-1 (IGF-1) and 100 ng/ml netrin were added, respectively, to the starved MESC2.10 neurons for the indicated time. […] Fold changes of IKK activity were quantified by measuring the band intensity using Image J, and compared to non-treated neurons.

IKKβ = target: T3, IKKβ (Homo sapiens, UniProt O14920); details: cited from earlier work
T3 sequence (O14920 1-756): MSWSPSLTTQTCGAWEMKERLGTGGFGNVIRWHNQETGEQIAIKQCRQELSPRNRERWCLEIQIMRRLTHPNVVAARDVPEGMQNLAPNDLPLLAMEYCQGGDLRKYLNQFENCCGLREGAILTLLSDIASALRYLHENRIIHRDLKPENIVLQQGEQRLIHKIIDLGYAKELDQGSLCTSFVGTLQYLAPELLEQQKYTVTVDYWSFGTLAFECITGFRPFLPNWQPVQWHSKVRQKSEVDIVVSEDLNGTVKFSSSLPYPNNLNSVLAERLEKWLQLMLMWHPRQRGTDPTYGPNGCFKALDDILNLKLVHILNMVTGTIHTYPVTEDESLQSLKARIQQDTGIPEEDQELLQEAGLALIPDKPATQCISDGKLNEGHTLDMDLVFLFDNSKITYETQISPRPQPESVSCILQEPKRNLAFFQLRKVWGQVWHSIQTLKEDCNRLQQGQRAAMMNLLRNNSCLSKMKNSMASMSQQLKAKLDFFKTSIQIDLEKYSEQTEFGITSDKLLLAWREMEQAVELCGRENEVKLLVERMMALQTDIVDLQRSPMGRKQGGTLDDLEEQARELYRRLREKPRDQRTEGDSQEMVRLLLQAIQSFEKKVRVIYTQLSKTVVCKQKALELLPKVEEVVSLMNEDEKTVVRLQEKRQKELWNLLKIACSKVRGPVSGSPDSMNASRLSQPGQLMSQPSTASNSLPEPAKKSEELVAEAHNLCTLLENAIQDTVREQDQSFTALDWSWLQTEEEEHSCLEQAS

COc1cc([C@@H]2c3cc4c(cc3[C@@H](O[C@@H]3O[C@@H]5CO[C@@H](C)O[C@H]5[C@H](O)[C@H]3O)[C@H]3COC(=O)[C@H]23)OCO4)cc(OC)c1O [etoposide]
level of IKKα protein after etoposide treatment (IKKα [1]): decrease | level of intact Bcl-xL after etoposide (Bcl-xL [2]; MESC2.10 neurons, etoposide 6 hours): reduced | increase of the level of endogenous, full-length Htt (endogenous Htt; MESC2.10 neurons, 10 μM etoposide, early time points): ~4 fold | time required for maximal Htt proteolysis (endogenous Htt; MESC2.10 neurons, etoposide): ~6 h | proteolysis of endogenous Htt caused by the agent (endogenous Htt; MESC2.10 neurons, longer exposure to 10 μM etoposide): induces proteolysis of endogenous Htt | cleavage of full-length mutant Htt caused by the agent [3]: promoted cleavage of full-length, mutant Htt protein | nuclear p53 (p53): accumulates in the nucleus | p65 NF-κB DNA binding activity (p65 NF-κB): activated p65 NF-κB DNA binding | IKKα kinase activity after etoposide treatment (IKKα [4]): reduces IKKα activity | caspase-3 activity in neuronal extracts (caspase-3 [5]): elevated | procaspase-3 level / activation (caspase-3 [6]): reduced | caspase-6 activity in neuronal extracts (caspase-6 [7]): elevated | procaspase-6 level / activation (caspase-6 [8]): reduced | cell cycle activation measured by BrdU incorporation (MESC2.10 neurons): promotes cell cycle activation

O=C([O-])c1ccccc1O.[Na+] [sodium salicylate]
phosphorylation of Bcl-xL by IKKβ (recombinant IKKβ): prevented the reaction | effect on etoposide-induced reduction of Bcl-xL (Bcl-xL [2]; MESC2.10 neurons pre-treated or transduced, then etoposide): did not affect Bcl-xL | effect on etoposide-induced Htt proteolysis (endogenous Htt): blocks etoposide-induced Htt proteolysis | effect on etoposide-induced reduction of Bcl-xL (Bcl-xL [9]): prevented | caspase-3 activity in neuronal extracts (caspase-3 [5]): lowered the etoposide-induced activation of caspases | effect on Htt cleavage induced by γ-irradiation (Htt): blocked Htt cleavage | caspase-6 activity in neuronal extracts (caspase-6 [7]): lowered the etoposide-induced activation of caspases

Ac-DEVD-CHO
effect on etoposide-induced Htt proteolysis (endogenous Htt): reduced Htt proteolysis

Ac-VEID-aldehyde
effect on etoposide-induced Htt proteolysis (endogenous Htt): no significant effect

IGF-1: insulin-like growth factor-1, IKKα activator
activation of IKKα (IKKα [10]): activates IKKα

arsenite
IKKβ activation (IKKβ): potently inhibited IKKβ activation
